Results from a melting point compilation (Tetko et al.; mined from patent text by program, amines drawn as free bases though some values may be those of a salt).

Row | Compound | melting point [°C]
1 | CCOC(=O)/C=C/c1ccc(-c2nc3c(=O)n(CC4CCCCC4)c(=O)n(CC4CCCCC4)c3[nH]2)cc1 | > 300
2 | COc1cc(F)c(F)cc1C=O | 74
3 | Cn1cc(C(=O)NCc2ccc(Cl)cc2)c(=O)c2cc(CN3CCOCC3)cc(C#Cc3cccnc3)c21 | 195 to 197
4 | O=C(O)C1CC(O)CN1C(=O)c1ccc2c(c1)OCO2 (stereo unspecified) | 230
5 | CCCc1c(OCCCCCCCC(=O)OC)ccc(C(C)=O)c1O | 39 to 41
6 | O=C(CC1=C(n2nc(-c3c(-c4ccccc4)nn4ccccc34)ccc2=O)CCCC1)N1CCCC1 | 178 to 179
7 | C[C@@H](n1cnc2ccc(F)cc2c1=O)[C@](O)(Cn1cncn1)c1ccc(F)cc1F | 192 to 193
8 | CCSC(=S)N1Cc2[nH]c3ccccc3c2CC1C(=O)O (stereo unspecified) | 177 to 178
9 | CC(C)NCC(O)COc1ncccc1Cl (stereo unspecified) | 71 to 73
10 | O=C(O)c1ccc(OCc2ccccc2OCc2ccccc2)cc1 | 177 to 179
11 | CC(C)(C)c1ccc(C(CCCN2CCC(=NO)CC2)OC2CCCCO2)cc1 (stereo unspecified) | 150 to 151
12 | COc1ccc(C(=O)c2cc3ccccc3o2)c(Cl)c1Cl | 148
13 | COCC1CN(c2ccc3cc(OCC4CC4)ccc3c2)C(=O)O1 (stereo unspecified) | 119 to 120
14 | CCOC(=O)c1c(SCOC)nc2c(F)c(F)c(F)cc2c1O | 91 to 94
15 | COc1ccc(-c2nc3cc(Cl)ccc3o2)cc1OC | 142 to 145
16 | CCCCCCCCCCCCCCCC(=O)NC(C)CO (stereo unspecified) | 75 to 76
17 | CCOC(=O)c1c(Nc2ccncc2)c2ccc(Cl)cc2n1C | 154 to 155
18 | Brc1ccccc1CCn1ccccc1=NC(=NC1CCCCC1)NC1CCCCC1 | 125 to 129
19 | N#CCCNC(=O)c1cccc(-c2cccc3cc(Cc4cccc(C(F)(F)F)c4)sc23)c1 | 95 to 98
20 | CC(C)O[Si](C)(CCl)c1ccc(-c2ccccc2)cc1 (stereo unspecified) | 35 to 38
21 | N#Cc1c(N2CCCCC2)cc(-c2cccs2)c2c1Cc1ccccc1-2 | 148 to 150
22 | CC(C)(C)c1ccc(CCCC(O)CC2CCCCC2)cc1NC(=O)CC1c2ccccc2Oc2ccccc21 (stereo unspecified) | 157 to 158
23 | CCN1CCCC1CNC(=O)Cc1ccc(-c2ccc3c(=O)c(C(=O)NC)c(C)n(CC)c3n2)s1 (stereo unspecified) | 250
24 | COc1ccc(NC(=O)c2ccc(COc3ccc4c(c3)CCC(CCN3CCCCC3)C4)cc2)cc1 (stereo unspecified) | 193 to 196
25 | COc1cccc(Cc2cc3cccc(-c4cccc(C(=O)NCCN5CCCC5)c4)c3o2)c1 | 101 to 102
26 | CC(=O)c1ccc(C(=O)N2Cc3ccnn3Cc3ccccc32)cc1 | 201 to 210

Row | Compound | melting point [°C]
27 | O=c1nc(-c2ccccc2)c2ccsc2n1CC1CC1 | 191 to 192
28 | O=C(C#Cc1ccccc1)Nc1nc2ccccc2s1 | 174 to 176
29 | N#Cc1cc(N)c(Cl)c(N)c1 | 172
30 | CCCCN(CCCC)c1cc(=O)n(-c2ccc(S(=O)(=O)O)cc2)[nH]1 | 267 to 269
31 | CCOC(=O)C1CCc2[nH]c3ccc(OC(F)(F)F)cc3c2C1 (stereo unspecified) | 131 to 132
32 | Cn1c2ccc(Cl)cc2c2cc(C(=O)N3CCOCC3)sc21 | 178 to 182
33 | COc1ccc(-c2nc3cnccc3[nH]2)c(O)c1 | 255
34 | O=C(CCc1cnn(-c2ccccc2)c1-c1ccccc1)Nc1ccc(C(=O)O)cc1 | 254 to 256
35 | NC(=O)N=C1SCCN1Cc1ccccc1 | 143 to 145
36 | COc1cc(C(=O)CBr)cc([N+](=O)[O-])c1O | 147 to 149
37 | CCCc1ccc(-n2cnc(-c3ccc(C#N)cc3)c2)cc1 | 133
38 | CCCc1nc(-n2c(C)ccc2C)c(C(=O)OC)[nH]1 | 175 to 176
39 | CN(C)c1cc(Oc2cccc(C(F)(F)F)c2)nc(C(=O)NN=CC(F)(F)C(F)(F)F)c1 | 108 to 109
40 | O=C(O)c1cc(OCc2ccccc2)nc(OCc2ccccc2)c1 | 145 to 147
41 | C=CCOc1ccc2nc(OCC=C(C)C)ccc2c1 | 53 to 54
42 | O=c1ccoc2c1ccc1ncccc12 | 146 to 147
43 | CC(C)(C)c1ncc([C@H]2[C@H](C(=O)O)C2(C)C)cn1 (relative stereo) | 168 to 169
44 | CC(C)=CCN1Cc2c(Br)ccc3[nH]c(=O)n(c23)CC1C (single isomer, unassigned; (+)) | 125
45 | O=C1N[C@@H](c2ccccc2)[C@H]1O | 175 to 180
46 | O=C(Nc1ccnc(Br)c1)C1(O)CCCC1 | 153
47 | C=CC(C)=CC(=CC)NCc1ccc2nc(NC3CCN(C)CC3)n(Cc3nc(C)ccc3O)c2c1 | 141
48 | C[C@@H](OS(C)(=O)=O)C(=O)N1C(=O)N(C)C[C@H]1C(=O)OC(C)(C)C | 97 to 100
49 | CC(=O)c1cc(C#N)c(=O)[nH]c1C=CN(C)C | 267 to 270
50 | CC(=O)Oc1ccc(CC2CCCN2C)cc1OC(C)=O (stereo unspecified) | 44 to 45
51 | CS(=O)(=O)Oc1ccccc1C(=O)O | 125 to 126
